Measured values taken from patent EP0200132A2, “(Aminoalkylthio)hydroxydibenzoxepins, a process for their preparation and their use as medicaments” (HOECHST-ROUSSEL PHARMACEUTICALS INCORPORATED, priority 1985, dated 1986).

Columns and labels:
[1] = tested on: tetrabenazine-induced ptosis; test: inhibition of tetrabenazine-induced depression (ptosis) in mice; format: in vivo
[2] = tested on: phenyl-p-quinone writhing; test: phenyl-p-quinone writhing assay in mice; format: in vivo; settings: Mus musculus, sc
Source text: The (aminoalkylthio)hydroxydibenzoxepins of the present invention are also useful as analgetic agents due to their ability to alleviate pain in mammals. […] Exptl.

How did the “EDso (tetrabenazine-induced ptosis)” value ([1]; intraperitoneally, standard antidepressant, unit not given) turn out when `CN(C)CCC=C1c2ccccc2CCc2ccccc21` [Amitriptyline, reference compound] was run?
Its value is 1.5.

Which inhibition at 20 mg/kg ([2]; mice, subcutaneous dose 20 mg/kg of body weight) does the source give for `CNCCSC1=Cc2cc(O)ccc2Oc2ccc(F)cc21` [Example 2, 2-Fluoro-8-hydroxy-11-[β-(methylamino)ethylthio)-dibenz-[b,f]oxepin] here?
The inhibition at 20 mg/kg was 69%.

What about the ED50 ([1]; Mus musculus, ip, intraperitoneal, read-out: intraperitoneal dose effecting a 50% inhibition of tetrabenazine-induced ptosis (ED50)) of the same molecule?
Its ED50 is 3.3 mg/kg.

Which results are given for `CNCCSC1=Cc2ccc(O)cc2Oc2ccc(F)cc21` [Example 3, 2-Fluoro-7-hydroxy-11-[β-(methylamino)ethylthio]-dibenz-[b,f]oxepin]?
inhibition at 10 mg/kg ([2]; mice, subcutaneous dose 10 mg/kg of body weight): 42%; inhibition at 20 mg/kg ([1]; Mus musculus, ip, intraperitoneal dose 20 mg/kg of body weight): 89%

Which ED50 ([2]; read-out: dose giving calculated 50% inhibition of writhing) does the source give for `CCC(=O)O[C@](Cc1ccccc1)(c1ccccc1)[C@H](C)CN(C)C` [Propoxyphene, reference compound] here?
Its ED50 is 3.9 mg/kg.
